Key:
[1] = system: C. elegans wild type strain (N2, Bristrol); assay: Extension of C. elegans (nematode) lifespan by febuxostat, wild type strain (Example 1); assay type: in vivo; conditions: wild type strain N2, febuxostat 10 mg/ml, 20° C., FIG. 2
Experimental: (§1) Extension of lifespan by febuxostat was examined using a wild type strain (N2, Bristrol) and a daf-16 gene (nematode ortholog of human transcription factor FOXO; a typical example of shortened lifespan in nematode variant due to a transcription factor that is suppressed by insulin signals) variant strain (mu86). Both strains were bred at 20° C.
(§2) In order to keep the developmental stage of the strains used for lifespan measurement constant, it was waited until food (Escherichia coli) was exhausted and growth of first instar larvae stopped. The nematode was cut and planted together with agar in a petri dish with food.
(§3) Ampicillin (100 μg/ml) was added to a 6 cm NGM plate (standard medium for nematode culture) to inhibit the growth of the food Escherichia coli strain and its associated metabolism, and OP50 (the food Escherichia coli strain) and FBX were added ([…]).
(§4) When the cut and planted nematodes became adults, they were washed out of the petri dish using M9 buffer and collected. The nematodes were suspended in Eppendorf tubes. An equal amount of bleach solution (a mixture of 4N NaOH, hypochlorous acid solution, and M9 buffer at a ratio of 2:3:5) to the nematode suspension was added and mixed. […]
(§5) Life or death was determined for each individual every other day, and the data was recorded. […]
(§6) The lifespan tracking was completed when it was determined that all nematodes had died.

[2] = system: C. elegans daf-16 gene variant strain (mu86); assay: Extension of C. elegans (nematode) lifespan by febuxostat, daf-16 variant strain (Example 1); assay type: in vivo
Experimental: as §1, §2, §3, §4, §5, §6

[3] = system: C. elegans wild type strain (N2, Bristrol); assay: Effect of febuxostat on nematode lifespan, UV-killed Escherichia coli plus kanamycin (Example 3); assay type: in vivo; conditions: N2, febuxostat 5, 10, 20 μg/mL, FIG. 4
Experimental: The effect of febuxostat on lifespan was examined using a wild type strain (N2, Bristrol) of C. elegans as a nematode. In addition, mitochondria of the nematode cultured in the absence and presence of febuxostat were compared under electron microscopy. The culturing method and culturing conditions for nematodes (N2) were almost the same as those in Example 1 except for the method for treating the food added to the medium. Generally, Escherichia coli is added to the NGM plate as food for nematodes; however, when Escherichia coli grows, it may affect metabolites, etc. Therefore, a method of adding the antibiotic ampicillin to stop the growth of Escherichia coli is performed. However, it cannot be completely denied that the presence of ampicillin in the NGM plate had some effect. Therefore, instead of adding ampicillin, Escherichia coli was killed by being irradiated with ultraviolet rays, and kanamycin was further added. In this way, Escherichia coli as food was treated differently from Example 1, and it was checked whether the same experimental results as in Example 1 could be obtained. The concentration of febuxostat added to the NGM plate was 5, 10, 20 μg/mL.

[4] = system: mitochondria of the muscle of C. elegans (N2); assay: Effect of febuxostat on mitochondrial morphology in nematode muscle, electron microscopy (Example 3); assay type: in vivo; conditions: cultured 18 days in the presence of 20 μg/mL of febuxostat, compared with FBX(−), FIG. 5
Experimental: The effect of febuxostat on lifespan was examined using a wild type strain (N2, Bristrol) of C. elegans as a nematode. In addition, mitochondria of the nematode cultured in the absence and presence of febuxostat were compared under electron microscopy.
On the 18th day of culturing, nematodes were fixed by the following method. An M9 buffer comprising 8% ethanol was dropped on a slide glass, and the nematodes were placed therein and allowed to stand until the nematodes stopped moving (about 5 minutes). Next, a fixing solution was placed on another slide glass, and the nematodes that had stopped moving were transferred to the fixing solution. The fixing solution comprises 2% paraformaldehyde+2% glutaraldehyde/0.1M phosphate buffer (pH 7.4), and was adjusted prior to use.
Subsequently, a 22 G injection needle was used to cut the nematodes in the following procedure.
First, the cranial side was cut from the pharynx, and then amputation was performed around Vulva. In this experiment, in order to observe the mitochondria of the muscle behind Vulva with an electron microscope, only the caudal side was collected and placed in an Eppendorf tube comprising a fixing solution (4° C.)
Observation with an electron microscope was carried out by requesting the Hanaichi UltraStructure Research Institute (Okazaki City, Aichi Prefecture) using an electron microscope HITACHI H-7600 (100 kV).

C. elegans = conditions: Non-Patent Documents 13 to 16; cited from earlier work

SMILES	lifespan [1]	lifespan compared with the wild type strain ([2]; daf-16 gene variant strain (mu86) with febuxostat)	lifespan ([2]; daf-16 gene variant strain (mu86), febuxostat 10 mg/ml, 20° C., FIG. 3)	lifespan of nematodes [3]	morphology of mitochondria in the muscle [4]	lifespan in C. elegans (C. elegans)
Cc1nc(-c2ccc(OCC(C)C)c(C#N)c2)sc1C(=O)O [febuxostat]	showed an extension of lifespan	did not reach the same length of lifespan as that of the wild type strain	showed an extension of lifespan	lifespan of nematodes is extended	morphology of mitochondria is maintained almost normally	
CN(C)C(=N)N=C(N)N [metformin]						prolongs the lifespan
